Experiments:
[1] = tested on: Rat PMNL; assay: Myeloperoxidase (MPO) Release from rat PMNL; assay type: cell-based; conditions: for inhibition at 1 µM / inhibition at 3 µM / inhibition at 10 µM / inhibition at 30 µM / inhibition at 100 µM / inhibition at 300 µM: Rattus norvegicus, PMNL
Procedure: (§1) Rat PMNL were obtained from exudates resulting from peritoneal injection of 6 mL of 8% sodium caseinate. Eighteen hours after injection rats were killed by carbon dioxide inhalation and the peritoneal cavity lavaged with Hank's balanced salt solution (HBSS). After concentration of the PMNL by centrifugation, contaminating erythrocytes were removed by hypotonic lysis. The PMNL were then washed twice by centrifugation (400×g for 10 minutes) and resuspended in HBSS. Cell viability was greater than 90% by Trypan Blue exclusion and greater than 90% of the cells were PMNL by Wright-Giemsa stain.
MPO release was determined using the MPO catalyzed oxidation of o-dianisidine. The experiments were carried out in 96-well microtiter plates (Webster and Henson, 1978). In each well, 50 microliter (μ1) aliquots of a PMNL suspension (2×10^7 cell/mL in HBSS) were incubated with 50 μof HBSS containing vehicle (0.3% DMSO) or inhibitor for 30 minutes at 37° C. The final DMSO concentration never exceeded 0.3% and was constant throughout each experiment. To activate the PMNL, 50 μl of one of the following were added for 30 minutes at 37° C.: N-formyl-Met-Leu-Phe (fMLP; 0.1 μM); phorbol myristate acetate (PMA, 200 ng/mL); or rat serum opsonized zymosan (OZ; 2.6 mg/mL, prepared by the method of Ward et al., 1983). The stimuli were added in 50 μl HBSS which also contained the compounds or vehicle, as appropriate, to avoid changing the inhibitor concentration. Cell activation was terminated by centrifugation of the plates at 600×g for 5 minutes at 22° C. Aliquots (100 μl) of supernatant were removed from each well and transferred to a 96-well flatbottomed microtiter plate for the MPO assay. To each aliquot of supernatant was added 100 μl of a freshly prepared solution containing 50 μl of 0.2M sodium phosphate buffer (pH 6.2), 25 μl of 3.9 mM O-dianisidine and 25 μl of 0.015M hydrogen peroxide. Blanks were obtained using the same solution without hydrogen peroxide. The plates were mixed and then incubated at room temperature in the dark for about 15 minutes. Absorbances of the samples were measured at 450 nm.
Rat PMNL were isolated in HBSS containing Ca^+2. As summarized in the figure below, fMLP stimulation of rat PMNL in the presence of cytochalasin B or with opsonized zymosan or with ionomycin results in the release of myeloperoxidase (fMLP/MPO, OZ/MPO, and ION/MPO; columns 2, 4, and 6 respectively).

[2] = tested on: Rat PMNL; assay: Superoxide Anion (SOA) Production by rat PMNL; assay type: cell-based; conditions: for inhibition of superoxide anion production: PMA and OZ induced; for inhibition at 1 µM / inhibition at 3 µM / inhibition at 10 µM / inhibition at 30 µM / inhibition at 100 µM / inhibition at 300 µM: Rattus norvegicus, PMNL
Procedure: as §1
Aliquots (50 μl) of a rat PMNL suspension (2×10^7 cells/mL in HBSS) were incubated with 50 μl of HBSS containing vehicle (0.3% DMSO) or compound for 30 minutes at 37° C. as above. One hundred microliters of buffer containing 5.98 mg/mL of cytochrome C (Sigma Type III) and 0.1 mg/mL catalase, plus the compounds where appropriate, were then added to each sample. A blank for spectrophotometric measurement, containing unstimulated cells in the presence of cytochrome C, catalase and SOD, was also prepared. To activate the PMNL, 75 μl of PMA or OZ were added to achieve the final concentration of cell activator (plus vehicle or inhibitor as described above for MPO release) and the cells further incubated at 37° C. for 60 minutes. The activation was terminated by centrifugation at 600×g for 5 minutes at 4° C. Aliquots (200 μl) of supernatant were then transferred to a second, flat-well microtiter plate and measured spectrophotometrically at 550 nm. […]

[3] = fMLP + cytochalasin B, read-out: fMLP/MPO inhibition
[4] = ionomycin, read-out: ION/MPO inhibition
[5] = opsonized zymosan, read-out: OZ/MPO inhibition
[6] = fMLP + cytochalasin B, opsonized zymosan, ionomycin
[7] = PMA, read-out: PMA/SOA inhibition
[8] = opsonized zymosan, read-out: OZ/SOA inhibition

Row | SMILES | inhibition at 1 µM [1, 3] [%] | inhibition at 3 µM [1, 3] [%] | inhibition at 10 µM [1, 3] [%] | inhibition at 30 µM [1, 3] [%] | inhibition at 100 µM [1, 3] [%] | inhibition at 1 µM [1, 4] [%] | inhibition at 3 µM [1, 4] [%] | inhibition at 10 µM [1, 4] [%] | inhibition at 30 µM [1, 4] [%] | inhibition at 100 µM [1, 4] [%] | inhibition at 1 µM [1, 5] [%] | inhibition at 3 µM [1, 5] [%] | inhibition at 10 µM [1, 5] [%] | inhibition at 30 µM [1, 5] [%] | inhibition at 100 µM [1, 5] [%] | inhibition of myeloperoxidase release [1, 6] | inhibition of superoxide anion production [2] | inhibition at 1 µM [2, 7] [%] | inhibition at 3 µM [2, 7] [%] | inhibition at 10 µM [2, 7] [%] | further results
1 | CN(C)c1ccc(C(=O)C=Cc2ccncc2)cc1 [MDL 101,240, 1-(4-dimethylaminophenyl)-3-(4-pyridinyl)-2-propene-1-one] | 13.1 | 11.7 | 31.2 | 67.3 | 112 | -8 | -5 | -2 | 12 | 35.6 | 2.5 | 7.3 | 28.1 | 82.5 | 142 | dose dependent inhibition of myeloperoxidase release | inhibited in a dose dependent fashion | -7.2 | 4.7 | 5.9 | inhibition at 30 µM [2, 7]: 34.5%; inhibition at 100 µM [2, 7]: 81.5%; inhibition at 1 µM [2, 8]: -7.8%; inhibition at 3 µM [2, 8]: 2.5%; inhibition at 10 µM [2, 8]: 21.3%; inhibition at 30 µM [2, 8]: 66.3%; inhibition at 100 µM [2, 8]: 85%
2 | O=C(C=Cc1ccncc1)c1ccccc1 [MDL 29,355, 1-phenyl-3-(4-pyridinyl)-2-propene-1-one] | 0.1 | 5 | 16.5 | 53.3 | 101 | -4.5 | -1.7 | 14.8 | 24.4 | 89.1 | -1.7 | 3.4 | 3.6 | 3.2 | 7.1 | dose dependent inhibition of myeloperoxidase release | inhibited in a dose dependent fashion | -29.5 | -30.2 | -20.7 | inhibition at 300 µM [1, 3]: 104%; inhibition at 300 µM [1, 4]: 99.6%; inhibition at 300 µM [1, 5]: 42.4%; inhibition at 30 µM [2, 7]: -12.3%; inhibition at 100 µM [2, 7]: 21.1%; inhibition at 300 µM [2, 7]: 104%; inhibition at 1 µM [2, 8]: -10.7%; inhibition at 3 µM [2, 8]: -12.6%; inhibition at 10 µM [2, 8]: 2.5%; inhibition at 30 µM [2, 8]: 27.5%; inhibition at 100 µM [2, 8]: 67.6%; inhibition at 300 µM [2, 8]: 102%

From patent US5500429A, “Calcium uptake inhibitors” (Merrell Pharmaceuticals Inc., priority 1993, dated 1996)
